Results reported in article PMC10038264, “A new family of glutamate-gated chloride channels in parasitic sea louse Caligus rogercresseyi: A subunit refractory to activation by ivermectin is dominant in heteromeric assemblies” (PLOS Pathogens, 2023).
Like-named read-outs stand apart in the source and are kept apart here.

How the values were obtained:
Type in all cases: cell-based, Caligus rogercresseyi
[1] = system: coexpressed CrGluCl-C:CrGluCl-A; experiment: Voltage-clamp of oocytes coinjected with CrGluCl-C and CrGluCl-A
Procedure: (§1) Adult female Xenopus laevis frogs were anaesthetized by immersion in a1g/L solution tricaine (Ethyl 3-aminobenzoate methanesulfonate, Sigma) buffered to pH 7 with NaHCO3. Surgery was performed 30–40 min later, once the frog was completely anaesthetized judging by loss of reflexes. Ovarian lobes were removed through 1 cm abdominal incision and then kept at 16°C in Barth’s modified solution containing (in mM): 88 NaCl, 1 KCl, 0.4 CaCl2, 0.3 Ca (NO3)2, 0.8 MgSO4, 2.4 NaHCO3, 5 Hepes, 2.5 sodium pyruvate, 100 μg/ml gentamicin sulfate, 100 U/ml penicillin, 100 μg/ml streptomycin, 250 μg/ml amphotericin B, 0.22μm filtered and adjusted to pH 7.5 with Tris-Base. Osmolarity was brought to 220 mOsm with saccharose. The oocytes were manually defolliculated on the same day of extraction and the following day 20 ng cRNA in nuclease-free water was injected into stage V-VI oocytes using a FemtoJet microinjector (Eppendorf). Finally, the injected oocytes were stored in 96 well plates containing Barth’s modified solution and kept at 16°C until experiment day.
Current measurements at controlled membrane potentials (voltage-clamp experiments) were performed using two intracellular microelectrodes in defolliculated Xenopus oocytes previously microinjected with 20 ng of cRNA. Voltage-clamp recording was performed at room temperature using a TURBO TEC-10CX amplifier (npi electronic GmbH, Tamm, Germany) and PClamp 10.6 software (Axon Instruments, USA), 1 to 4 days after oocyte injection. The oocytes were recorded in a chamber (Model RC-1Z, Warner Instrumenst, USA) under continuous superfusion. […] Reference was an Ag-AgCl electrode connected to the bath via a 3 M KCl in 3% agar bridge. Currents were recorded continuously during the experiments without interruptions for solution changes. […] The signal filtered at 1 kHz was acquired with a Digidata 1440A Analog-to-Digital Converter and analyzed with Axon pClamp 10.6 software. […]

[2] = system: CrGluCl-B-Q279E-Y361F-Q327T triple mutant; experiment: Voltage-clamp of oocytes expressing CrGluCl-B triple mutant
Description: To identify putative GluCl subunits, we queried the NCBI Transcriptome Shotgun Assembly Sequence (TSA) Database for “glutamate-gated chloride channel Caligus”. The obtained sequences were translated and BLASTed (tBLASTn) against the C. rogercresseyi genome (WGS, BioProject ID 280098, NCBI) and against transcripts of L. salmonis database (https://licebase.org/). Primers for each of the putative new subunit found were designed to span the full length of the open reading frame (ORF) for each of them (B-E) (S1 Table, and arrows in Fig 1). Complete cDNAs were generated by RT-PCR from adult C. rogercresseyi samples from which putative full-length peptide sequences of CrGluCl-B, CrGluCl-C, CrGluCl-D and CrGluCl-E were obtained. Each PCR product was cloned in pGEM-T easy vector and sequenced. To express the clones in Xenopus laevis oocytes, ORF of CrGluCl-B, -C, -D and -E were cloned in pGH19 vector from pGEM-Teasy/CrGluCl using the following restriction enzymes: BamHI and XbaI (-B) and EcoRI (-D and -E). CrGluCl-C was cloned first in pCR3.1 vector with NotI and then into pGH19 with SpeI/XbaI. The CrGluCl/pGH19 plasmid were linearized with NheI (-A and -B) or XhoI (-C, -D, -E) and used as template for the synthesis of capped cRNA (complementary RNA) using the mMessage Machine T7 kit. Mutations were made by site-directed mutagenesis using the QuickChange method and confirmed by sequencing. […]
(§2) Current measurements at controlled membrane potentials (voltage-clamp experiments) were performed using two intracellular microelectrodes in defolliculated Xenopus oocytes previously microinjected with 20 ng of cRNA. […] The oocytes were recorded in a chamber (Model RC-1Z, Warner Instrumenst, USA) under continuous superfusion. […] Currents were recorded continuously during the experiments without interruptions for solution changes. […] The signal filtered at 1 kHz was acquired with a Digidata 1440A Analog-to-Digital Converter and analyzed with Axon pClamp 10.6 software. […]

[3] = system: coexpressed CrGluCl-D:CrGluCl-C; experiment: Voltage-clamp of oocytes coinjected with CrGluCl-D and CrGluCl-C; conditions: D:C ratio 1:1
Procedure: as §1, with “The oocytes were manually defolliculated on the same day of extraction and the following day 20 ng cRNA in nuclease-free water was injected into stage V-VI oocytes using a FemtoJet microinjector (Eppendorf). Finally, the injected oocytes were stored in 96 well plates containing Barth’s modified solution and kept at 16°C until experiment day.” left out
as §2

[4] = system: coexpressed CrGluCl-D:CrGluCl-A; experiment: Voltage-clamp of oocytes coinjected with CrGluCl-D and CrGluCl-A; conditions: D:A ratio 1:1
Procedure: as §1, with “The oocytes were manually defolliculated on the same day of extraction and the following day 20 ng cRNA in nuclease-free water was injected into stage V-VI oocytes using a FemtoJet microinjector (Eppendorf). Finally, the injected oocytes were stored in 96 well plates containing Barth’s modified solution and kept at 16°C until experiment day.” left out
as §2

[5] = system: coexpressed CrGluCl-D:CrGluCl-B; experiment: Voltage-clamp of oocytes coexpressing CrGluCl-D and CrGluCl-B; conditions: B:D ratio 1:1
Procedure: as §1, with “The oocytes were manually defolliculated on the same day of extraction and the following day 20 ng cRNA in nuclease-free water was injected into stage V-VI oocytes using a FemtoJet microinjector (Eppendorf). Finally, the injected oocytes were stored in 96 well plates containing Barth’s modified solution and kept at 16°C until experiment day.” left out
as §2

[6] = system: CrGluCl-B Q279E mutant; experiment: Voltage-clamp of oocytes expressing CrGluCl-B Q279E mutant; conditions: 1 μM ivermectin, one-sample t-test
Description: (§3) To identify putative GluCl subunits, we queried the NCBI Transcriptome Shotgun Assembly Sequence (TSA) Database for “glutamate-gated chloride channel Caligus”. The obtained sequences were translated and BLASTed (tBLASTn) against the C. rogercresseyi genome (WGS, BioProject ID 280098, NCBI) and against transcripts of L. salmonis database (https://licebase.org/). Primers for each of the putative new subunit found were designed to span the full length of the open reading frame (ORF) for each of them (B-E) (S1 Table, and arrows in Fig 1). Complete cDNAs were generated by RT-PCR from adult C. rogercresseyi samples from which putative full-length peptide sequences of CrGluCl-B, CrGluCl-C, CrGluCl-D and CrGluCl-E were obtained. Each PCR product was cloned in pGEM-T easy vector and sequenced. […]
as §2

[7] = system: CrGluCl-B Q279E-Y361F mutant; experiment: Voltage-clamp of oocytes expressing CrGluCl-B Q279E-Y361F double mutant; conditions: 1 μM ivermectin, one-sample t-test
Description: as §3, §2

| Compound | EC50 ([1]; C:A 1:1, 60 mV, single Hill equation) [µM] | EC50 ([2]; read-out: EC50 glutamate) [µM] | Iver response to activation [3] | Iver response to activation [4] | nH (ivermectin) [5] | EC50 ([5]; read-out: EC50 ivermectin (Iver response to activation)) [µM] | Iver response to activation ([1]; C:A 1:1, 60mV) | Iver response to activation ([1]; C:A 1:1, -80mV) | effect of ivermectin on current [6] | effect of ivermectin on current [7] | nH (ivermectin) [2] | EC50 ([2]; read-out: EC50 ivermectin) [µM] |
| --- | --- | --- | --- | --- | --- | --- | --- | --- | --- | --- | --- | --- |
| N[C@@H](CCC(=O)O)C(=O)O [glutamate, L-glutamate] | 7.9 ± 0.9 | 103 ± 133 | – | – | – | – | – | – | – | – | – | – |
| ivermectin | – | – | Sensitive | Sensitive | 2.6 ± 1.1 | 0.278 ± 0.053 | Sensitive | Sensitive | small but significant effects | small but significant effects | 1.6 ± 0.22 | 0.094 ± 0.054 |
